# In US10800791B2, “Triazole ACC inhibitors and uses thereof” (Gilead Apollo, LLC, priority 2015, dated 2020):
# pIC50: −log10 of the molar value. Where two headings read alike, the source gives them in different places.
# Columns and labels:
# C. parapsilosis = assay: Antifungal Activity Assay (broth microtiter MIC), C. parapsilosis; type: cell-based, Candida parapsilosis; settings: Lodderomyces parapsilosis, ATCC22019, 48 h
# Procedure, shortened: (§1)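 MIC read by eye at 48 h, comparing challenged wells with the growth control. Yeasts grown overnight on Sabouraud dextrose agar at 35° C, suspended in RPMI 1640+MOPS and added at 2.5×10^3 CFU/mL final, following CLSI M27-A3.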
# human (hACC2) = human (hACC2) (Homo sapiens, UniProt O00763); assay: In vitro ACC inhibition assay (ADP-Glo), hACC2; type: biochemical; settings: 5 nM ACC2, 20 μM ATP, 20 μM acetyl-CoA
# Experimental: The detailed procedure is as follows. […] 10 μL ADP glo reagent was added. […] 20 μL kinase detection reagent was added.
# Septoria tritici (St) = assay: Growth inhibition assay of fungal pathogens, St; type: cell-based; settings: Zymoseptoria tritici, 48 h
# Procedure, shortened: (§2)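 Percent inhibition derived at 48 hours from OD600 and visual scores versus 2% DMSO control, with media+DMSO blank as background. Spore inocula in 17% V8 medium were sized from 48 h growth curves; compounds tested at final 50/10/2 or 2/0.4/0.08 ppm.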
# [1] = system: Phytophthora capsici (Pc); assay: Growth inhibition assay of fungal pathogens, Pc; type: cell-based; settings: 48 h
# Procedure, shortened: as §2
# C. albicans = assay: Antifungal Activity Assay (broth microtiter MIC), C. albicans; type: cell-based, Candida albicans; settings: Candida albicans, ATCC90028, 48 h
# Procedure, shortened: as §1
# [2] = system: Collectotrichum graminicola (Cg); assay: Growth inhibition assay of fungal pathogens, Cg; type: cell-based; settings: 48 h
# Procedure, shortened: as §2
# Rhizoctonia solani (Rs) = assay: Growth inhibition assay of fungal pathogens, Rs; type: cell-based; settings: 48 h
# [3] = system: Fusarium moniliforme (Fm); assay: Growth inhibition assay of fungal pathogens, Fm; type: cell-based; settings: for IC90: Fusarium verticillioides, 48 h, read-out: Concentration at 90% Inhibition Fm
# Procedure, shortened: as §2
# C. krusei = assay: Antifungal Activity Assay (broth microtiter MIC), C. krusei; type: cell-based, Candida krusei; settings: Pichia kudriavzevii, ATCC6258, 48 h
# Procedure, shortened: as §1
# [4] = system: Fusarium virguliforme (Fv); assay: Growth inhibition assay of fungal pathogens, Fv; type: cell-based; settings: 48 h
# Procedure, shortened: as §2
# Diplodia maydis (Dm) = assay: Growth inhibition assay of fungal pathogens, Dm; type: cell-based; settings: Stenocarpella maydis, 48 h
# Procedure, shortened: as §2
# [5] = Fusarium moniliforme, growth inhibition at 48 hours vs 2% DMSO control
# human (hACC2), sequence (O00763 whole entry): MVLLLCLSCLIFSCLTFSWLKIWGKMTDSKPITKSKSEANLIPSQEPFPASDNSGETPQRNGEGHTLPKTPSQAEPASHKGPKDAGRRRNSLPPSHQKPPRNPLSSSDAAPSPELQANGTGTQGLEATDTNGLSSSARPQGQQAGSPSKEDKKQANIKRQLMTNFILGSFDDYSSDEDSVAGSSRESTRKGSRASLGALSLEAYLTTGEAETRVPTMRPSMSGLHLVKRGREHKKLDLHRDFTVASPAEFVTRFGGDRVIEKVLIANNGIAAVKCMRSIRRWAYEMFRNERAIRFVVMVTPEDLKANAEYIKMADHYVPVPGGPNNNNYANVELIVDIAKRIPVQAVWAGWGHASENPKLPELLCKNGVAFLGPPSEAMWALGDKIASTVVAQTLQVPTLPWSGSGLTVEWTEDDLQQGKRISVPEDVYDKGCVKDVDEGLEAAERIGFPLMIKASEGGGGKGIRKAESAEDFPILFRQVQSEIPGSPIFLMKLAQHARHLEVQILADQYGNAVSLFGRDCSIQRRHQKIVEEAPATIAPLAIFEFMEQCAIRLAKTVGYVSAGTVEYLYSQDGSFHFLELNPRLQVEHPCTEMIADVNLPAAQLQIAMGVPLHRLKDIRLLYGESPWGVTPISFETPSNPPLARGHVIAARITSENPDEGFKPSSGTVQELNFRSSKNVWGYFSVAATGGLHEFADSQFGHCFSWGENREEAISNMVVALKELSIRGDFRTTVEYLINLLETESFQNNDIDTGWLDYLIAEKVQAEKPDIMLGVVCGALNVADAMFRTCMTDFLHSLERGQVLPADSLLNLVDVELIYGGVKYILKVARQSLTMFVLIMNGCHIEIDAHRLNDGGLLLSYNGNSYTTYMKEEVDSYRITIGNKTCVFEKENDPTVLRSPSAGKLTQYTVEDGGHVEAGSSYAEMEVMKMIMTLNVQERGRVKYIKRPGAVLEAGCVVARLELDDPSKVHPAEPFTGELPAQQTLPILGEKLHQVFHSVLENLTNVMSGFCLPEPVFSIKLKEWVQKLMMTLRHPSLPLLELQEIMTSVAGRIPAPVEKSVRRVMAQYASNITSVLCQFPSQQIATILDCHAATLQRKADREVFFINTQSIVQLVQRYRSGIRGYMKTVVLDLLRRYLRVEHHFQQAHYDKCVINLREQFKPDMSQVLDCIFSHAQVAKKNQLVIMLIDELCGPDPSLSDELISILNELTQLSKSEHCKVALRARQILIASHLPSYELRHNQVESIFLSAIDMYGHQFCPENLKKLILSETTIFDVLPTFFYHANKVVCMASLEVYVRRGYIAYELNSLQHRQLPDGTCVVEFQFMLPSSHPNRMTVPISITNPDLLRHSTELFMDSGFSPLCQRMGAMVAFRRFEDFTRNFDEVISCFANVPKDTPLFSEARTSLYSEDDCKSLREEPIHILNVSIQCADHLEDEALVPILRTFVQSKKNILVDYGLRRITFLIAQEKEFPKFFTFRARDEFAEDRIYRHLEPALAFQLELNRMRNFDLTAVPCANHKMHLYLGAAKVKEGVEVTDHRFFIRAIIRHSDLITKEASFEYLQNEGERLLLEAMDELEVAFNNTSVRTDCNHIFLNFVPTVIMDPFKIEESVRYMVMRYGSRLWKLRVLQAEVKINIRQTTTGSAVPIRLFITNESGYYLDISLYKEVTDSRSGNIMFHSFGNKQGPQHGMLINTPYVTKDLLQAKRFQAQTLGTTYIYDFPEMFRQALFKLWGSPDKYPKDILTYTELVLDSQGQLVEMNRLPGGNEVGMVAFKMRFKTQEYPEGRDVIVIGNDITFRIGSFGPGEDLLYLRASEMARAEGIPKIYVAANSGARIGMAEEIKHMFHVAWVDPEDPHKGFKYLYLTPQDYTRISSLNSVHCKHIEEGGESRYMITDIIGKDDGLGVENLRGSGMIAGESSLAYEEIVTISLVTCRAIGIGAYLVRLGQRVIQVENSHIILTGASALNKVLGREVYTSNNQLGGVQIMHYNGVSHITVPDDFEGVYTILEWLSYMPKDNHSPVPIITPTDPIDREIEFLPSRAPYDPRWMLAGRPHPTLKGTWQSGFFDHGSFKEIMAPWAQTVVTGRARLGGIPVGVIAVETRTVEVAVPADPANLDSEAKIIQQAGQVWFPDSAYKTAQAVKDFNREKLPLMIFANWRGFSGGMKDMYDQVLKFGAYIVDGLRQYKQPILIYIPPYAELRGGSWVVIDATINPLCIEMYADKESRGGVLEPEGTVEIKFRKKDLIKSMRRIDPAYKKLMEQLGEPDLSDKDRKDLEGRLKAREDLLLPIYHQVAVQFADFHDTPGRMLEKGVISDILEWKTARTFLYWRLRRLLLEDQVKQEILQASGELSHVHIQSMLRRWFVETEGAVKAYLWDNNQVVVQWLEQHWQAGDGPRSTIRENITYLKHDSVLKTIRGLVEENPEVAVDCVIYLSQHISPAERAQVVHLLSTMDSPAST
smiles,measurement,setting,value
"COc1ccc(F)cc1[C@H](Cn1c(=O)n(C(C)(C)C(=O)N2CCCC2)c(=O)c2c(C)c(-n3nccn3)sc21)OCCO [Compound I-44, (R)-1-(2-(5-fluoro-2-methoxyphenyl)-2-(2-hydroxyethoxy)ethyl)-5-methyl-3-(2-methyl-1-oxo-1-(pyrrolidin-1-yl)propan-2-yl)-6-(2H-1,2,3-triazol-2-yl)thieno[2,3-d]pyrimidine-2,4(1H,3H)-dione]",MIC,"C. parapsilosis; Table 3a, ATCC 22019, 3 replicates, MIC recorded at 48 h, read-out: MIC, C. parapsilosis ATCC 22019",2.1 to 4 µg/mL
same,MIC,"C. parapsilosis; Table 3b (additional results), ATCC 22019, 3 replicates, MIC recorded at 48 h, read-out: MIC, C. parapsilosis ATCC 22019",1.01 to 2 µg/mL
same,pIC50,human (hACC2); Table 2a,8.00 to 8.30
same,pIC50,"human (hACC2); Table 2b, additional results",8.00 to 8.30
same,IC90,"Septoria tritici (St); Septoria tritici, growth inhibition at 48 hours vs 2% DMSO control, read-out: Concentration at 90% Inhibition St",> 50 µg/mL
same,IC90,"Septoria tritici (St); Septoria tritici, growth inhibition vs 2% DMSO control at 48 hours, read-out: Concentration at 90% Inhibition St",> 50 µg/mL
same,IC90,"[1]; growth inhibition at 48 hours vs 2% DMSO control, read-out: Concentration at 90% Inhibition Pc",> 50 µg/mL
same,IC90,"[1]; growth inhibition vs 2% DMSO control at 48 hours, read-out: Concentration at 90% Inhibition Pc",> 50 µg/mL
same,MIC,"C. albicans; Table 3a, ATCC 90028, 3 replicates, MIC recorded at 48 h, read-out: MIC, C. albicans ATCC 90028",2.1 to 4 µg/mL
same,MIC,"C. albicans; Table 3b (additional results), ATCC 90028, 3 replicates, MIC recorded at 48 h, read-out: MIC, C. albicans ATCC 90028",1.01 to 2 µg/mL
same,IC90,"[2]; Collectotrichum graminicola, growth inhibition at 48 hours vs 2% DMSO control, read-out: Concentration at 90% Inhibition Cg",2 µg/mL
same,IC90,"[2]; Collectotrichum graminicola, growth inhibition vs 2% DMSO control at 48 hours, read-out: Concentration at 90% Inhibition Cg",2 µg/mL
same,IC90,"Rhizoctonia solani (Rs); mycelial plugs, growth inhibition at 48 hours vs 2% DMSO control, read-out: Concentration at 90% Inhibition Rs",2 µg/mL
same,IC90,"Rhizoctonia solani (Rs); mycelial plugs, growth inhibition vs 2% DMSO control at 48 hours, read-out: Concentration at 90% Inhibition Rs",10 µg/mL
same,IC90,[3]; [5],0.4 µg/mL
same,IC90,"[3]; Fusarium moniliforme, growth inhibition vs 2% DMSO control at 48 hours",0.4 µg/mL
same,MIC,"C. krusei; Table 3a, ATCC 6258, 3 replicates, MIC recorded at 48 h, read-out: MIC, C. krusei ATCC 6258",1.1 to 2 µg/mL
same,MIC,"C. krusei; Table 3b (additional results), ATCC 6258, 3 replicates, MIC recorded at 48 h, read-out: MIC, C. krusei ATCC 6258",1.01 to 2 µg/mL
same,IC90,"[4]; growth inhibition at 48 hours vs 2% DMSO control, read-out: Concentration at 90% Inhibition Fv",0.4 µg/mL
same,IC90,"[4]; growth inhibition vs 2% DMSO control at 48 hours, read-out: Concentration at 90% Inhibition Fv",0.4 µg/mL
same,IC90,"Diplodia maydis (Dm); Diplodia maydis, growth inhibition at 48 hours vs 2% DMSO control, read-out: Concentration at 90% Inhibition Dm",2 µg/mL
same,IC90,"Diplodia maydis (Dm); Diplodia maydis, growth inhibition vs 2% DMSO control at 48 hours, read-out: Concentration at 90% Inhibition Dm",10 µg/mL
"COc1ccc(F)cc1[C@H](Cn1c(=O)n(C(C)(C)C(=O)NC(C)C)c(=O)c2c(C)c(-n3nccn3)sc21)OC[C@@H](C)O [Compound I-45, 2-(1-((R)-2-(5-fluoro-2-methoxyphenyl)-2-((R)-2-hydroxypropoxy)ethyl)-5-methyl-2,4-dioxo-6-(2H-1,2,3-triazol-2-yl)-1,4-dihydro-thieno[2,3-d]pyrimidin-3(2H)-yl)-N-isopropyl-2-methylpropanamide]",MIC,"C. parapsilosis; read-out: MIC, C. parapsilosis ATCC 22019, Table 3a, 3 replicates, MIC recorded at 48 h",0.25 to 1 µg/mL
same,MIC,"C. parapsilosis; read-out: MIC, C. parapsilosis ATCC 22019, Table 3b (additional results), 3 replicates, MIC recorded at 48 h",1.01 to 2 µg/mL
same,pIC50,human (hACC2); Table 2a,7.40 to 8.00
same,pIC50,"human (hACC2); Table 2b, additional results",7.40 to 8.00
same,IC90,"Septoria tritici (St); read-out: Concentration at 90% Inhibition St, Septoria tritici, growth inhibition at 48 hours vs 2% DMSO control",2 µg/mL
same,IC90,"Septoria tritici (St); read-out: Concentration at 90% Inhibition St, Septoria tritici, growth inhibition vs 2% DMSO control at 48 hours",10 µg/mL
same,IC90,"[1]; read-out: Concentration at 90% Inhibition Pc, Phytophthora capsici, growth inhibition at 48 hours vs 2% DMSO control",2 µg/mL
same,IC90,"[1]; read-out: Concentration at 90% Inhibition Pc, Phytophthora capsici, growth inhibition vs 2% DMSO control at 48 hours",10 µg/mL
same,MIC,"C. albicans; read-out: MIC, C. albicans ATCC 90028, Table 3a, 3 replicates, MIC recorded at 48 h",0.25 to 1 µg/mL
same,MIC,"C. albicans; read-out: MIC, C. albicans ATCC 90028, Table 3b (additional results), 3 replicates, MIC recorded at 48 h",0.25 to 1 µg/mL
same,IC90,"[2]; read-out: Concentration at 90% Inhibition Cg, Collectotrichum graminicola, growth inhibition at 48 hours vs 2% DMSO control",0.4 µg/mL
same,IC90,"[2]; read-out: Concentration at 90% Inhibition Cg, Collectotrichum graminicola, growth inhibition vs 2% DMSO control at 48 hours",0.4 µg/mL
same,IC90,"Rhizoctonia solani (Rs); read-out: Concentration at 90% Inhibition Rs, Rhizoctonia solani, mycelial plugs, growth inhibition at 48 hours vs 2% DMSO control",0.08 µg/mL
same,IC90,"Rhizoctonia solani (Rs); read-out: Concentration at 90% Inhibition Rs, Rhizoctonia solani, mycelial plugs, growth inhibition vs 2% DMSO control at 48 hours",0.08 µg/mL
same,Concentration at 90% Inhibition Fm,[3]; [5],AA (compound concentration of 0.08 ppm at 90% inhibition of fungal pathogens)
same,IC90,[3],0.08 µg/mL
same,MIC,"C. krusei; read-out: MIC, C. krusei ATCC 6258, Table 3a, 3 replicates, MIC recorded at 48 h",0.25 to 1 µg/mL
same,MIC,"C. krusei; read-out: MIC, C. krusei ATCC 6258, Table 3b (additional results), 3 replicates, MIC recorded at 48 h",1.01 to 2 µg/mL
same,IC90,"[4]; read-out: Concentration at 90% Inhibition Fv, Fusarium virguliforme, growth inhibition at 48 hours vs 2% DMSO control",0.4 µg/mL
same,IC90,"[4]; read-out: Concentration at 90% Inhibition Fv, Fusarium virguliforme, growth inhibition vs 2% DMSO control at 48 hours",0.4 µg/mL
same,IC90,"Diplodia maydis (Dm); read-out: Concentration at 90% Inhibition Dm, Diplodia maydis, growth inhibition at 48 hours vs 2% DMSO control",0.4 µg/mL
same,IC90,"Diplodia maydis (Dm); read-out: Concentration at 90% Inhibition Dm, Diplodia maydis, growth inhibition vs 2% DMSO control at 48 hours",0.4 µg/mL
